Source: publication PMC10066365, “Nemacol is a small molecule inhibitor of C. elegans vesicular acetylcholine transporter with anthelmintic potential” (Nature Communications, 2023)
Several values for one entry are separate records, joined by “and”; a condition that tells them apart may be missing. Equal entries are not always repeated.

What was measured:
C. elegans = C. elegans motor phenotype scoring on solid media (Punc/jerky-unc, coiled, paralyzed), wild-type young adults; assay type: in vivo, Caenorhabditis elegans; conditions: for atypical locomotion (number of animals) / coiled (number of animals) / no phene (number of animals) / paralyzed (number of animals) / any phene: mean % fraction of young adults exhibiting any phenotype (coiled, jerky-Unc or paralyzed): one hour; for atypical locomotion (number of animals) / coiled (number of animals) / no phene (number of animals) / paralyzed (number of animals): young adults, 20 animals per trial, single technical replicate; for any phene: mean % fraction of young adults exhibiting any phenotype (coiled, jerky-Unc or paralyzed): mean of three biological replicates; for EC50: Caenorhabditis elegans, any motor phenotype after 1 h on solid media, ± 95% CI, read-out: C. elegans - motor disruption EC50
[1] = tested on: Dirofilaria immitis microfilariae; assay: Dirofilaria immitis microfilariae immobility assay (DiroImager, 72 h); conditions: Dirofilaria immitis microfilariae
Method in brief: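 About 250 freshly purified microfilariae of the Missouri isolate per well in supplemented RPMI 1640, exposed to compound for 72 h. Motility scored by automated whole-plate optical imaging; medium with 1% DMSO as negative control.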

Pristionchus pacificus = Pristionchus pacificus motor disruption dose-response on solid media, 1 h; conditions: for EC50: Pristionchus pacificus, 1 h, read-out: P. pacificus motor disruption EC50; for mean % any phene: any phenotype (coiled, jerky-Unc or paralyzed) at one hour; for mean % any phene / mean % any phene (coiled, jerky-Unc or paralyzed): mean of three biological replicates; for mean % any phene (coiled, jerky-Unc or paralyzed): Pristionchus pacificus young adults
[2] = tested on: Dirofilaria immitis L3/L4; assay: Dirofilaria immitis L3/L4 motility assay (DiroImager, 72 h); conditions: Dirofilaria immitis L4
[3] = conc 3.75, count of 20 animals per trial, one hour
[4] = conc 15, count of 20 animals per trial, one hour
[5] = conc 60, count of 20 animals per trial, one hour

Fc1ccccc1N1CCN(C2CCCCCC2)CC1 [Nemacol-56]
atypical locomotion (number of animals) (C. elegans; 3.75uM): 2 and 3 and 12 and 10 | coiled (number of animals) (C. elegans; 3.75uM): 0 | no phene (number of animals) (C. elegans; 3.75uM): 18 and 17 and 8 and 10 | paralyzed (number of animals) (C. elegans; 3.75uM): 0 | any phene: mean % fraction of young adults exhibiting any phenotype (coiled, jerky-Unc or paralyzed) (C. elegans; 3.75uM): 25.8333% | atypical locomotion (number of animals) (C. elegans; 15uM): 12 and 18 and 7 and 14 and 16 | coiled (number of animals) (C. elegans; 15uM): 0 and 2 | no phene (number of animals) (C. elegans; 15uM): 8 and 2 and 13 and 4 | paralyzed (number of animals) (C. elegans; 15uM): 0 and 2 | any phene: mean % fraction of young adults exhibiting any phenotype (coiled, jerky-Unc or paralyzed) (C. elegans; 15uM): 69.1667% | atypical locomotion (number of animals) (C. elegans; 60uM): 2 and 3 and 10 and 0 | coiled (number of animals) (C. elegans; 60uM): 5 and 6 and 4 and 3 and 8 | no phene (number of animals) (C. elegans; 60uM): 0 | paralyzed (number of animals) (C. elegans; 60uM): 13 and 11 and 6 and 14 and 15 and 12 | any phene: mean % fraction of young adults exhibiting any phenotype (coiled, jerky-Unc or paralyzed) (C. elegans; 60uM): 100% | EC50 (C. elegans): 8 ± 3.3 µM | % effect (motility), DIROIM MF ([1]; 0.016 µM): 0% | % effect (motility), DIROIM MF ([1]; 0.08 µM): 0% | % effect (motility), DIROIM MF ([1]; 0.4 µM): 0% | % effect (motility), DIROIM MF ([1]; 2 µM): 0% | % effect (motility), DIROIM MF ([1]; 10 µM): 0% | EC50 (Pristionchus pacificus): 38.4 ± 4.7 µM | mean % any phene (Pristionchus pacificus; conc 3.75): 2.5% | rep 1 no phene (Pristionchus pacificus; [3]): 20 and 18 | rep 1 paralyzed (Pristionchus pacificus; [3]): 0 | rep 2 atypical locomotion (Pristionchus pacificus; [3]): 0 | rep 2 coiled (Pristionchus pacificus; [3]): 0 | rep 2 no phene (Pristionchus pacificus; [3]): 20 | rep 2 paralyzed (Pristionchus pacificus; [3]): 0 | rep 3 atypical locomotion (Pristionchus pacificus; [3]): 0 | rep 3 no phene (Pristionchus pacificus; [3]): 20 and 19 | rep 3 paralyzed (Pristionchus pacificus; [3]): 0 | mean % any phene (Pristionchus pacificus; conc 15): 0.8333% | rep 1 atypical locomotion (Pristionchus pacificus; [4]): 0 | rep 1 coiled (Pristionchus pacificus; [4]): 0 | rep 1 no phene (Pristionchus pacificus; [4]): 20 | rep 1 paralyzed (Pristionchus pacificus; [4]): 0 | rep 2 coiled (Pristionchus pacificus; [4]): 0 | rep 2 no phene (Pristionchus pacificus; [4]): 19 and 20 | rep 2 paralyzed (Pristionchus pacificus; [4]): 0 | rep 3 atypical locomotion (Pristionchus pacificus; [4]): 0 | rep 3 coiled (Pristionchus pacificus; [4]): 0 | rep 3 no phene (Pristionchus pacificus; [4]): 20 | rep 3 paralyzed (Pristionchus pacificus; [4]): 0 | mean % any phene (Pristionchus pacificus; conc 60): 85% | rep 1 atypical locomotion (Pristionchus pacificus; [5]): 10 | rep 1 coiled (Pristionchus pacificus; [5]): 4 and 2 | rep 1 no phene (Pristionchus pacificus; [5]): 2 | rep 1 paralyzed (Pristionchus pacificus; [5]): 4 and 6 | rep 2 no phene (Pristionchus pacificus; [5]): 5 and 3 | rep 3 atypical locomotion (Pristionchus pacificus; [5]): 14 and 13 | rep 3 coiled (Pristionchus pacificus; [5]): 3 and 4 | rep 3 no phene (Pristionchus pacificus; [5]): 3 | rep 3 paralyzed (Pristionchus pacificus; [5]): 0 | % effect (motility), DIROIM L4 ([2]; 10 µM): 0% | % effect (motility), DIROIM L4 ([2]; 50 µM): 15%

FC(F)(F)c1cccc(N2CCN(C3CCCCCCC3)CC2)c1 [Nemacol-55]
atypical locomotion (number of animals) (C. elegans; 3.75uM): 5 and 6 and 2 and 3 and 8 | coiled (number of animals) (C. elegans; 3.75uM): 0 | no phene (number of animals) (C. elegans; 3.75uM): 15 and 14 and 18 and 17 and 12 | paralyzed (number of animals) (C. elegans; 3.75uM): 0 | any phene: mean % fraction of young adults exhibiting any phenotype (coiled, jerky-Unc or paralyzed) (C. elegans; 3.75uM): 26.6667% | atypical locomotion (number of animals) (C. elegans; 15uM): 11 and 15 and 8 and 9 and 19 and 18 | coiled (number of animals) (C. elegans; 15uM): 1 and 0 and 2 | no phene (number of animals) (C. elegans; 15uM): 8 and 4 and 12 and 11 and 1 and 0 | paralyzed (number of animals) (C. elegans; 15uM): 0 and 1 | any phene: mean % fraction of young adults exhibiting any phenotype (coiled, jerky-Unc or paralyzed) (C. elegans; 15uM): 70% | atypical locomotion (number of animals) (C. elegans; 60uM): 18 and 17 and 16 and 11 and 15 | coiled (number of animals) (C. elegans; 60uM): 0 and 2 and 5 and 4 and 3 | no phene (number of animals) (C. elegans; 60uM): 0 and 2 | paralyzed (number of animals) (C. elegans; 60uM): 2 and 1 and 0 and 4 | any phene: mean % fraction of young adults exhibiting any phenotype (coiled, jerky-Unc or paralyzed) (C. elegans; 60uM): 96.6667% | EC50 (C. elegans): 7.9 ± 3.5 µM | % effect (motility), DIROIM MF ([1]; 0.016 µM): 0% | % effect (motility), DIROIM MF ([1]; 0.08 µM): 0% | % effect (motility), DIROIM MF ([1]; 0.4 µM): 0% | % effect (motility), DIROIM MF ([1]; 2 µM): 0% | % effect (motility), DIROIM MF ([1]; 10 µM): 0% | mean % any phene (coiled, jerky-Unc or paralyzed) (Pristionchus pacificus; conc 3.75, observed at one hour): 5% | mean % any phene (coiled, jerky-Unc or paralyzed) (Pristionchus pacificus; conc 15, observed at one hour): 8.333% | mean % any phene (coiled, jerky-Unc or paralyzed) (Pristionchus pacificus; conc 60, observed at one hour): 59.1667% | EC50 (Pristionchus pacificus): 49.2 ± 6.2 µM | % effect (motility), DIROIM L4 ([2]; 10 µM): 15% | % effect (motility), DIROIM L4 ([2]; 50 µM): 35%
